# Measured values from PubChem BioAssay AID1259408 (Genetic Toxicology Data Bank (GENE-TOX), 2018).
# Activity calls are given as the source filed them. The rule behind the calls is not given here.
# Test system: GENE-TOX genotoxicity assays, various organisms and cells
# Assay: GENE-TOX mutagenicity studies
# Conditions: for call: Assay Type: In vivo carcinogenicity studies
# [1] = Species/Cell Type: Chinese hamster lung (V79) cells, Assay Type: Forward gene mutation at the HPRT or ouabain locus, Assay Code: V79+, Evaluation Type: Evaluation A (Pre-1980)
# [2] = Species/Cell Type: Drosophila melanogaster, Assay Type: Sex-linked recessive lethal gene mutation, Assay Code: SRLT, Evaluation Type: Evaluation A (Pre-1980)
# [3] = Species/Cell Type: Mouse lymphoma (L5178Y) cells, Assay Type: Forward gene mutation at the thymidine kinase (TK) locus, chromosome aberrations, Assay Code: L51+, Evaluation Type: Evaluation A (Pre-1980)
# [4] = Species/Cell Type: Neurospora crassa, Assay Type: Forward gene mutation, Assay Code: NEF+, Evaluation Type: Evaluation A (Pre-1980)
# [5] = Species/Cell Type: Neurospora crassa, Assay Type: Reverse gene mutation, Assay Code: NER+, Evaluation Type: Evaluation A (Pre-1980)
# [6] = Species/Cell Type: Nonhuman, Assay Code: CCG+, Evaluation Type: Evaluation A (Pre-1980)
# [7] = Species/Cell Type: Nonhuman, Assay Type: Sister-chromatid exchange (SCE) in vitro, Assay Code: SC2+D, Dose Response: With dose response, Evaluation Type: Evaluation B (Post-1980)
# [8] = Species/Cell Type: Saccharomyces cerevisiae, Assay Type: Mitotic recombination or gene conversion, Assay Code: YEC+, Evaluation Type: Evaluation A (Pre-1980)
# [9] = Species/Cell Type: Saccharomyces cerevisiae, Assay Type: Mitotic recombination or gene conversion, Assay Code: YEH+, Evaluation Type: Evaluation A (Pre-1980)
# [10] = Species/Cell Type: Saccharomyces cerevisiae, Assay Type: Reverse gene mutation, Assay Code: YER+, Evaluation Type: Evaluation A (Pre-1980)
# [11] = Species/Cell Type: Salmonella typhimurium (one or more of the five standard strains: TA98, TA100, TA1535, TA1537, and TA1538), Assay Type: Histidine reverse gene mutation, Ames assay, Assay Code: SAL+, Evaluation Type: Evaluation A (Pre-1980)
# [12] = Species/Cell Type: Syrian hamster embryo (SHE) cells, Assay Type: Cell transformation, clonal assay, Assay Code: CTC+, Evaluation Type: Evaluation A (Pre-1980)
# [13] = Species/Cell Type: Salmonella typhimurium (one or more of the five standard strains: TA98, TA100, TA1535, TA1537, and TA1538), Assay Type: Histidine reverse gene mutation, Ames assay, Assay Code: SALT, Evaluation Type: Evaluation A (Pre-1980)
# [14] = Species/Cell Type: Drosophila melanogaster, Assay Type: Sex-linked recessive lethal gene mutation, Assay Code: SRL+, Evaluation Type: Evaluation A (Pre-1980)
# [15] = Species/Cell Type: Nonhuman, Assay Code: CCGT, Evaluation Type: Evaluation A (Pre-1980)
# [16] = Species/Cell Type: Salmonella typhimurium (one or more of the five standard strains: TA98, TA100, TA1535, TA1537, and TA1538), Assay Type: Histidine reverse gene mutation, Ames assay, Assay Code: SAL+*, Activation: With metabolic activation, Evaluation Type: Evaluation A (Pre-1980)
smiles,measurement,setting,value
NC(=O)/C(=C\c1ccc([N+](=O)[O-])o1)c1ccco1,mutagenic call,"Species/Cell Type: Bacillus subtilis (H17 vs M45), Assay Type: Rec-assay, spot test, DNA effects (bacterial DNA repair), Assay Code: REW+, Evaluation Type: Evaluation A (Pre-1980)",active; positive
same,mutagenic call,[1],active; positive
same,mutagenic call,[2],no conclusion
same,mutagenic call,"Species/Cell Type: Escherichia coli WP2 UVRA, Assay Type: Tryptophan reverse gene mutation, Assay Code: WPU+D, Dose Response: With dose response, Evaluation Type: Evaluation A (Pre-1980)",active; positive
same,mutagenic call,"Species/Cell Type: Human diploid fibroblasts, Assay Type: Unscheduled DNA synthesis (UDS) in vitro, DNA effects, Assay Code: UDHT, Evaluation Type: Evaluation A (Pre-1980)",no conclusion
same,mutagenic call,"Species/Cell Type: Human, Assay Type: Sister-chromatid exchange (SCE) in vitro, Assay Code: SC1+D, Dose Response: With dose response, Evaluation Type: Evaluation B (Post-1980)",active; positive
same,mutagenic call,"Species/Cell Type: Mammalian polychromatic erythrocytes, Assay Type: Micronucleus test, chromosome aberrations, Assay Code: MNTT, Evaluation Type: Evaluation A (Pre-1980)",no conclusion
same,mutagenic call,[3],active; positive
same,mutagenic call,"Species/Cell Type: Mouse, Sex: Male, Assay Type: Sperm morphology, Assay Code: SPI-, Evaluation Type: Evaluation A (Pre-1980)",inactive; negative
same,mutagenic call,[4],active; positive
same,mutagenic call,[5],active; positive
same,call,[6],active; positive
same,mutagenic call,[7],active; positive
same,mutagenic call,"Species/Cell Type: Rodents, Sex: Male, Assay Type: Dominant lethal test, Assay Code: DLT-, Evaluation Type: Evaluation A (Pre-1980)",inactive; negative
same,mutagenic call,[8],active; positive
same,mutagenic call,[9],active; positive
same,mutagenic call,[10],active; positive
same,mutagenic call,[11],active; positive
same,mutagenic call,[12],active; positive
CN(CCCCO)N=O,mutagenic call,[13],no conclusion
CNC(N)=O,mutagenic call,"Species/Cell Type: Human lymphocytes, Assay Type: Sister-chromatid exchange (SCE) in vitro, Assay Code: SCLT, Evaluation Type: Evaluation B (Post-1980)",no conclusion
same,mutagenic call,"Species/Cell Type: Human, Assay Type: Sister-chromatid exchange (SCE) in vitro, Assay Code: SC1T, Evaluation Type: Evaluation B (Post-1980)",no conclusion
same,mutagenic call,"Species/Cell Type: Salmonella typhimurium, Assay Type: Forward and reverse gene mutation, host-mediated assay, Assay Code: HMA+, Evaluation Type: Evaluation A (Pre-1980)",active; positive
O=P(N1C2COCC21)(N1C2COCC21)N1C2COCC21 (stereo not given),mutagenic call,[14],active; positive
CC(C)(C)Cl,mutagenic call,"Species/Cell Type: Escherichia coli polA (W3119 vs P3478), Assay Type: Rec-assay, DNA effects (bacterial DNA repair), Assay Code: RE1T, Evaluation Type: Evaluation A (Pre-1980)",no conclusion
CC1CCCC(C)N1N=O (stereo not given),mutagenic call,"Species/Cell Type: Drosophila melanogaster, Assay Type: Aneuploidy, partial sex chromosome loss, chromosome aberrations, Assay Code: DAPT, Evaluation Type: Evaluation A (Pre-1980)",no conclusion
same,mutagenic call,"Species/Cell Type: Drosophila melanogaster, Assay Type: Aneuploidy, whole sex chromosome loss, chromosome aberrations, Assay Code: DACT, Evaluation Type: Evaluation A (Pre-1980)",no conclusion
same,mutagenic call,[2],no conclusion
same,call,[15],no conclusion
same,mutagenic call,"Species/Cell Type: Saccharomyces cerevisiae, Assay Type: Forward gene mutation, Assay Code: YEF-*, Activation: With metabolic activation, Evaluation Type: Evaluation A (Pre-1980)",inactive; negative
same,mutagenic call,"Species/Cell Type: Saccharomyces cerevisiae, Assay Type: Reverse gene mutation, Assay Code: YER+*, Activation: With metabolic activation, Evaluation Type: Evaluation A (Pre-1980)",active; positive
COC(=O)NC(=S)Nc1ccccc1N,mutagenic call,"Species/Cell Type: Aspergillus nidulans, Assay Type: Aneuploidy, chromosome aberrations, Assay Code: ASN+, Evaluation Type: Evaluation A (Pre-1980)",active; positive
same,mutagenic call,"Species/Cell Type: Aspergillus nidulans, Assay Type: Mitotic recombination, Assay Code: ASG-, Evaluation Type: Evaluation A (Pre-1980)",inactive; negative
Cc1nc(-c2ccc([N+](=O)[O-])o2)cs1,mutagenic call,[7],active; positive
same,mutagenic call,[11],active; positive
CCN(CC)c1ccc2cc3ccc(=[N+](CC)CC)cc-3oc2c1,mutagenic call,[14],active; positive
CC1CCCCN1CCNc1ccc(CO)c2sc3ccccc3c(=O)c12 (stereo not given),mutagenic call,[3],active; positive
CC/C(=C(\c1ccccc1)c1ccc(OCCN(C)C)cc1)c1ccccc1,mutagenic call,"Species/Cell Type: Human, Sex: Male, Assay Type: Sperm morphology, Assay Code: SPHT, Evaluation Type: Evaluation A (Pre-1980)",no conclusion
CN(C)c1ccc(N=Nc2ccc3ncccc3c2)cc1,mutagenic call,"Species/Cell Type: Fischer rat embryo (RLV/1706) cells, Assay Type: Cell transformation, viral enhanced, Assay Code: CTR+, Evaluation Type: Evaluation A (Pre-1980)",active; positive
same,mutagenic call,"Species/Cell Type: Mouse embryo (AKR/ME) cells, Assay Type: Cell transformation, Assay Code: CTK+, Evaluation Type: Evaluation A (Pre-1980)",active; positive
CN(N=O)C(=O)Nc1nc2ccccc2s1,mutagenic call,[4],active; positive
same,mutagenic call,[8],active; positive
CS(=O)(=O)OCCCNCCCOS(C)(=O)=O,mutagenic call,[11],active; positive
C#CCNC(=NCCSCc1nc[nH]c1C)NC#N,mutagenic call,"Species/Cell Type: Mammalian polychromatic erythrocytes, Assay Type: Micronucleus test, chromosome aberrations, Assay Code: MNT-, Evaluation Type: Evaluation B (Post-1980)",inactive; negative
CC(=O)OCC[C@H](C=O)c1c(O)cc2c(c1O)C(=O)c1c(O)cc(O)cc1C2=O,mutagenic call,[16],active; positive
CN(C)CCOc1ccc2c(c1)CC/C(=C\c1ncc([N+](=O)[O-])n1C)C2=O,mutagenic call,[4],active; positive
same,mutagenic call,[5],active; positive
CO[C@H](C)[C@](O)(C(=O)OCC1=CCN2CC[C@H](O)[C@@H]12)C(C)C,mutagenic call,"Species/Cell Type: Allium cepa, Assay Type: Chromosome aberrations, Assay Code: ALC+D, Dose Response: With dose response, Evaluation Type: Evaluation A (Pre-1980)",active; positive
same,mutagenic call,"Species/Cell Type: Aspergillus nidulans, Assay Type: Forward gene mutation, Assay Code: ASF+, Evaluation Type: Evaluation A (Pre-1980)",active; positive
same,mutagenic call,"Species/Cell Type: Drosophila melanogaster, Assay Type: Aneuploidy, sex chromosome gain, chromosome aberrations, Assay Code: DAGT, Evaluation Type: Evaluation A (Pre-1980)",no conclusion
same,mutagenic call,"Species/Cell Type: Drosophila melanogaster, Assay Type: Aneuploidy, whole sex chromosome loss, chromosome aberrations, Assay Code: DAC+M, Evaluation Type: Evaluation A (Pre-1980)",active; positive
same,mutagenic call,[14],active; positive
same,mutagenic call,"Species/Cell Type: Drosophila melanogaster, Sex: Male, Assay Type: Heritable translocation test, chromosome aberrations, Assay Code: DHTT, Evaluation Type: Evaluation A (Pre-1980)",no conclusion
same,mutagenic call,"Species/Cell Type: Mammalian polychromatic erythrocytes, Assay Type: Micronucleus test, chromosome aberrations, Assay Code: MNT+, Evaluation Type: Evaluation B (Post-1980)",active; positive
same,mutagenic call,[7],active; positive
O[C@@H]1C=Cc2cc3ccc4cccc5ccc(c2[C@@H]1O)c3c45,mutagenic call,"Species/Cell Type: Chinese hamster lung (V79) cells, Assay Type: Forward gene mutation at the HPRT or ouabain locus, Assay Code: V79-, Evaluation Type: Evaluation A (Pre-1980)",inactive; negative
same,mutagenic call,[13],no conclusion
Cc1cccc2ccc3cc4ccccc4cc3c12,mutagenic call,"Species/Cell Type: Nonhuman, Assay Type: Sister-chromatid exchange (SCE) in vitro, Assay Code: SC2+, Evaluation Type: Evaluation B (Post-1980)",active; positive
same,mutagenic call,[16],active; positive
NC1C(O)[C@@H](O)C(CO)O[C@@H]1O (stereo not given in full),mutagenic call,"Species/Cell Type: Escherichia coli WP2, Assay Type: Tryptophan reverse gene mutation, Assay Code: WP2-, Evaluation Type: Evaluation A (Pre-1980)",inactive; negative
c1ccc(NNc2ccccc2)cc1,call,[6],active; positive
O=C(c1ccc2c(c1)OCO2)C1CO1 (stereo not given),mutagenic call,[11],active; positive
Cc1cc2ccccc2c2ccc3c(c12)CCC3=O,mutagenic call,[16],active; positive
O=NN1CCNC1=O,mutagenic call,"Species/Cell Type: Arabidopsis species, Assay Type: Gene mutation, Assay Code: ARM+D, Dose Response: With dose response, Evaluation Type: Evaluation A (Pre-1980)",active; positive
same,mutagenic call,"Species/Cell Type: Saccharomyces cerevisiae, Assay Type: Forward gene mutation, Assay Code: YEF+, Evaluation Type: Evaluation A (Pre-1980)",active; positive
same,mutagenic call,[8],active; positive
same,mutagenic call,[9],active; positive
same,mutagenic call,[10],active; positive
same,mutagenic call,[11],active; positive
Cc1ccc2cc3c(c4c2c1CC4)C1OC1c1ccccc1-3 (stereo not given),mutagenic call,[1],active; positive
same,mutagenic call,[14],active; positive
same,mutagenic call,"Species/Cell Type: Mouse prostate cells, Assay Type: Cell transformation, Assay Code: CTM+, Evaluation Type: Evaluation A (Pre-1980)",active; positive
same,call,[15],no conclusion
same,mutagenic call,[12],active; positive
Cc1cc(O)c2c(c1)C(=O)c1cc(O)cc(O[C@@H]3O[C@H](CO)[C@@H](O)[C@H](O)[C@H]3O)c1C2=O,mutagenic call,[16],active; positive
